# Columns and labels:
# Settings in all cases: 1 µM, ATP at Km
# [1] = target: BRSK1 (Homo sapiens, UniProt Q8TDC3)
# [2] = target: CDK5/P35 (Homo sapiens, UniProt Q00535)
# [3] = target: EPHA3 (Homo sapiens, UniProt P29320)
# [4] = target: TBK1 (Homo sapiens, UniProt Q9UHD2)
# [5] = target: MUSK (Homo sapiens, UniProt O15146)
# [6] = target: PI3K GAMMA (Homo sapiens, UniProt P48736)
# [7] = target: CDK5/P25 (Homo sapiens, UniProt Q00535)
# [8] = target: PRKAA2 (Homo sapiens, UniProt P54646)
# [9] = target: ERBB4 (Homo sapiens, UniProt Q15303)
# [10] = target: PKCEPSILON (Homo sapiens, UniProt Q02156)
# [11] = target: PRKCQ (Homo sapiens, UniProt Q04759)
# [12] = target: CK1GAMMA3 (Homo sapiens, UniProt Q9Y6M4)
# Chain of CK1GAMMA3 (Q9Y6M4 whole entry): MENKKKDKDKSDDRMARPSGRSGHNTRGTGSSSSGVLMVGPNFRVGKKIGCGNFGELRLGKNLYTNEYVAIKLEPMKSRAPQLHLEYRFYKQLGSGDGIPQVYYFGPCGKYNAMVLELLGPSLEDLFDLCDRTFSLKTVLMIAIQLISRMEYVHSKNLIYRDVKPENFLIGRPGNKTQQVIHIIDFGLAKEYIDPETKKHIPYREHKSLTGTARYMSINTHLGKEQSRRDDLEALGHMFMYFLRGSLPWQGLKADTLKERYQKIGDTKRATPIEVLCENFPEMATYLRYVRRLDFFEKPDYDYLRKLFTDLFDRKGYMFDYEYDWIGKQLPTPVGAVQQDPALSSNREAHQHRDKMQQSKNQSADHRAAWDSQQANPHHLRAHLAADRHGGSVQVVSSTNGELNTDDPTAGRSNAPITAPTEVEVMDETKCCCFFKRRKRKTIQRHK
# [13] = target: MNK2 (Homo sapiens, UniProt Q9HBH9)
# Chain of MNK2 (Q9HBH9 whole entry): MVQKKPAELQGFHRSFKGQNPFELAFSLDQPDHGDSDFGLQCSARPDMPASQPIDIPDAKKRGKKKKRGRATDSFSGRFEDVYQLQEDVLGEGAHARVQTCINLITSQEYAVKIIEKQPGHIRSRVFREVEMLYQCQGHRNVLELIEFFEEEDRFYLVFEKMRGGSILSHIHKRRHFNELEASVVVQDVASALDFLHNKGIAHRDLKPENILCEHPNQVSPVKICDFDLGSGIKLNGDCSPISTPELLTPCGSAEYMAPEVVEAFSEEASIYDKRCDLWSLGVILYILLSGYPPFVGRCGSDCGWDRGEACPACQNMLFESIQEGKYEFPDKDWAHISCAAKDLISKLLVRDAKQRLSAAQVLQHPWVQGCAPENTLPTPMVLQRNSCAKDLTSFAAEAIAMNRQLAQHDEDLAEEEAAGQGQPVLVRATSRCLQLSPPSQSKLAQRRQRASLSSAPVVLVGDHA
# [14] = target: EPHB1 (Homo sapiens, UniProt P54762)
# [15] = target: EPHA2 (Homo sapiens, UniProt P29317)
# [16] = target: FES (Homo sapiens, UniProt P07332)
# [17] = target: […] (Homo sapiens, UniProt Q8IU85)
# [18] = target: ASK1 (Homo sapiens, UniProt Q99683)
# [19] = target: PKG1ALPHA (Homo sapiens, UniProt Q13976)
# [20] = target: IR (Homo sapiens, UniProt P06213)
# [21] = target: MSK1 (Homo sapiens, UniProt O75582)
# [22] = target: MSSK1 (Homo sapiens, UniProt Q9UPE1)
# [23] = target: ARK5 (Homo sapiens, UniProt O60285)
# [24] = target: RIPK2 (Homo sapiens, UniProt O43353)
# [25] = target: TAK1 (Homo sapiens, UniProt O43318)
# [26] = target: PKCETA (Homo sapiens, UniProt P24723)
# [27] = target: EPHB3 (Homo sapiens, UniProt P54753)
# [28] = target: CDK7/CYCLINH/MAT1 (Homo sapiens, UniProt P50613)
# [29] = target: AURKB (Homo sapiens, UniProt Q96GD4)
# [30] = target: ULK3 (Homo sapiens, UniProt Q6PHR2)
# [31] = target: CHK2 (Homo sapiens, UniProt O96017)
# [32] = target: CK2 (Homo sapiens, UniProt P68400)
# [33] = target: SAPK2A (Homo sapiens, UniProt Q16539)
# [34] = target: MAPK2 (Homo sapiens, UniProt P28482)
# [35] = target: TAO3 (Homo sapiens, UniProt Q9H2K8)
# [36] = target: MKK7BETA (Homo sapiens, UniProt O14733)
# Chain of MKK7BETA (O14733 whole entry): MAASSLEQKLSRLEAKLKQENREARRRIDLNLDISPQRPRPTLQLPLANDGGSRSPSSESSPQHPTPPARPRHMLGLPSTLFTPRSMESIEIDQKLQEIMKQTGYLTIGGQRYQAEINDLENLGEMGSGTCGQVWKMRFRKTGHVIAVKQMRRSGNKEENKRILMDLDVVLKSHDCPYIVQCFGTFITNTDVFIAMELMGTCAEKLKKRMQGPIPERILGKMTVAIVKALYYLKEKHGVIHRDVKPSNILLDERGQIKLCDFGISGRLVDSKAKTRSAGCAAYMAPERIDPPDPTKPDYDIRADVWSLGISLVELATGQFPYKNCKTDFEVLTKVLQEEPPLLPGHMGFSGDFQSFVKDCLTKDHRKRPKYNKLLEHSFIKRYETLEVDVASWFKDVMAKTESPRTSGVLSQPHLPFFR
# [37] = target: DRAK1 (Homo sapiens, UniProt Q9UEE5)
# [38] = target: PKCMU (Homo sapiens, UniProt Q15139)
# [39] = target: SGK3 (Homo sapiens, UniProt Q96BR1)
# Chain of SGK3 (Q96BR1 whole entry): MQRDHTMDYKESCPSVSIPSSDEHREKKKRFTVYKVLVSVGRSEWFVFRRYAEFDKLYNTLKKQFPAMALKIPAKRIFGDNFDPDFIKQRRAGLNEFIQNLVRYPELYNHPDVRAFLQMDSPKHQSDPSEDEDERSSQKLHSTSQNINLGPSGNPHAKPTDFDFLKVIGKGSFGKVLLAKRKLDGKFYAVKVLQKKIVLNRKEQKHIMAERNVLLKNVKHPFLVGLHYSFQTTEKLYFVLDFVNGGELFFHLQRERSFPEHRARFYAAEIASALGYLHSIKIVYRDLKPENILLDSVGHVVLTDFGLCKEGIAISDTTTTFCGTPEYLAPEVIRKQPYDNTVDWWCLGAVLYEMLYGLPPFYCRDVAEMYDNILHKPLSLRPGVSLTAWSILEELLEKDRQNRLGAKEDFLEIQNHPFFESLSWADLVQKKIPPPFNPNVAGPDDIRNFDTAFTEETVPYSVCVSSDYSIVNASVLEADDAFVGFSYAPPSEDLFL
# [40] = target: PRAK (Homo sapiens, UniProt Q8IW41)
# [41] = target: EPHB4 (Homo sapiens, UniProt P54760)
# [42] = target: RSE (Homo sapiens, UniProt Q06418)
# [43] = target: MER (Homo sapiens, UniProt Q12866)
# Chain of MER (Q12866 21-999): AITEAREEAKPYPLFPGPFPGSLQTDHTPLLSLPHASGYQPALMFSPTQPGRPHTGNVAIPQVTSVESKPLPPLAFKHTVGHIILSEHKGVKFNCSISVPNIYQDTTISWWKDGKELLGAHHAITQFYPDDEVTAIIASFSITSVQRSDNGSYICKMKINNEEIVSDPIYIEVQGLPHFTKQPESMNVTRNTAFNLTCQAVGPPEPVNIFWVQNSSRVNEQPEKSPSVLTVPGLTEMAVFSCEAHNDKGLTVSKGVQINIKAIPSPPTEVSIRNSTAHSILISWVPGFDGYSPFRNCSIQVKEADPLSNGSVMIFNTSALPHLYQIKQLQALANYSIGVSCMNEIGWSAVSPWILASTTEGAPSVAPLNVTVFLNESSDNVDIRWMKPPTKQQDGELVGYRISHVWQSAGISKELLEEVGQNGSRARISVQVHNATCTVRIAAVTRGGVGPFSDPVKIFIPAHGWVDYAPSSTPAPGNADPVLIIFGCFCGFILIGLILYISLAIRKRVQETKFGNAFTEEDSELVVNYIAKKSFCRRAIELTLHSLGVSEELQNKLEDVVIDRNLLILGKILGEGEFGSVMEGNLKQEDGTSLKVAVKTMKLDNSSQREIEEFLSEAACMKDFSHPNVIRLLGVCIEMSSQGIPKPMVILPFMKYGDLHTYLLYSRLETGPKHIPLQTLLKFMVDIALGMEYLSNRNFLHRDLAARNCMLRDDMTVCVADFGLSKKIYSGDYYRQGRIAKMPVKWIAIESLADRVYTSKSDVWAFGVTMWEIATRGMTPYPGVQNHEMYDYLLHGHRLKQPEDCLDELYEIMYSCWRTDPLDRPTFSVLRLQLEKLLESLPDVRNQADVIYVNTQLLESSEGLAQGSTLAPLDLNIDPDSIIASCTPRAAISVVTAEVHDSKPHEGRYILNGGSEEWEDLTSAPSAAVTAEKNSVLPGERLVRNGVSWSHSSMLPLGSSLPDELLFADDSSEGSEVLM
# [44] = target: PKCBETAI (Homo sapiens, UniProt P05771)
# [45] = target: FLT3 (Homo sapiens, UniProt P36888)
# Chain of MUSK (O15146 24-869): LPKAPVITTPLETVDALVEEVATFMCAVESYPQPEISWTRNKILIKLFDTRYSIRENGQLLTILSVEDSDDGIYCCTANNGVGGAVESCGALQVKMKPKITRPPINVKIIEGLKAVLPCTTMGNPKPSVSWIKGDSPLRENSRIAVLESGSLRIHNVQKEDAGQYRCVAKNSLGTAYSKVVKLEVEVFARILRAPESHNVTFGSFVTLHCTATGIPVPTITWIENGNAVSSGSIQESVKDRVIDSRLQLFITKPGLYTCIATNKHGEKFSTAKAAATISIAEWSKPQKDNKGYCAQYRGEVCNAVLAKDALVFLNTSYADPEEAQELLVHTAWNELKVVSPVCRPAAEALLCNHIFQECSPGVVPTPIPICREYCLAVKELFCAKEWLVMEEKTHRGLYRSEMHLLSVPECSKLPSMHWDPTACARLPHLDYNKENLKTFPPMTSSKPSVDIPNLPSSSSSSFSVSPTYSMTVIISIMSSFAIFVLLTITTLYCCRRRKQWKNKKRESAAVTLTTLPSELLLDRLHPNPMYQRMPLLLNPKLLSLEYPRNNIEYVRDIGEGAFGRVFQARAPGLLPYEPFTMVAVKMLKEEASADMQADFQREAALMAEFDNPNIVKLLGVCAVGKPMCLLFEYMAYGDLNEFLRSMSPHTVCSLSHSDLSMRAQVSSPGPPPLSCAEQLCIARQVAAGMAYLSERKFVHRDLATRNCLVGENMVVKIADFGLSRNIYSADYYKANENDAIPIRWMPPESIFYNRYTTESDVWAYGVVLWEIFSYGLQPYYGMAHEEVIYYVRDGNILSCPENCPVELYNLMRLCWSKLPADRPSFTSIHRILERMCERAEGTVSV
# Chain of PI3K GAMMA (P48736 whole entry): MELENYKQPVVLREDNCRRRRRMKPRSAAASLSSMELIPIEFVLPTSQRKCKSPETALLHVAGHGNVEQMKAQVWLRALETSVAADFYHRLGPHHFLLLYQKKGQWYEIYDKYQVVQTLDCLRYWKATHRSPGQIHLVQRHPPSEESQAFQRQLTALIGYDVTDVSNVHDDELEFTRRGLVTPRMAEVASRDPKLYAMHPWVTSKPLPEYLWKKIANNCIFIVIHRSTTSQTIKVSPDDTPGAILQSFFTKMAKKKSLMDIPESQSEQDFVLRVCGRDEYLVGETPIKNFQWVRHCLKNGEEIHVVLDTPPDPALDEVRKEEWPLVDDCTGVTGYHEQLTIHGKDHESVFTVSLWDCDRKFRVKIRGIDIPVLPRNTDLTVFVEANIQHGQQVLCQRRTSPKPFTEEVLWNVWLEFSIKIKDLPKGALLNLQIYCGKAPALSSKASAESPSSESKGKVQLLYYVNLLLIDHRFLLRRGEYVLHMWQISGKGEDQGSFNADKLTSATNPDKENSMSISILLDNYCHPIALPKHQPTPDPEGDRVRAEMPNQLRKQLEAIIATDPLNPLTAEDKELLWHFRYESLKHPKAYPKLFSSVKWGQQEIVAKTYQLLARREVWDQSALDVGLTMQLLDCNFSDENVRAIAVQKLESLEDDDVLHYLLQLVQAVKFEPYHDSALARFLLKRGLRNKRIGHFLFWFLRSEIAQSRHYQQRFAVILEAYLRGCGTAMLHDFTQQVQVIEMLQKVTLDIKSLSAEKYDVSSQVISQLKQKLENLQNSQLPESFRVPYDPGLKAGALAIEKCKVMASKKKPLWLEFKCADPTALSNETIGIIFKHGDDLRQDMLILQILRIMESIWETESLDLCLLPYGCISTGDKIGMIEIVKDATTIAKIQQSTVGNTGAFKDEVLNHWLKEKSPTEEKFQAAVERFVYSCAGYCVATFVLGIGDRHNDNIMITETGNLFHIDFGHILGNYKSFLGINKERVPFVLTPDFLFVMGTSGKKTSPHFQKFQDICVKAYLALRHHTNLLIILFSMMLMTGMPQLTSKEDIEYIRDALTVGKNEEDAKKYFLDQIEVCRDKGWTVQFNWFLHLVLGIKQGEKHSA
structure (smiles),measurement,setting,value
COC1CN(C(=O)c2ccc3c(N)ncc(-c4ccc(-c5cnn(C)c5)cc4)c3c2)C1 [Compound 59],percentage effect,[1],2%
same,percentage effect,[2],-2%
same,percentage effect,[3],10%
same,percentage effect,[4],17%
same,percentage effect,[5],-18%
same,percentage effect,[6],-7%
same,percentage effect,[7],11%
same,percentage effect,[8],2%
same,percentage effect,[9],-34%
same,percentage effect,[10],8%
same,percentage effect,[11],-12%
same,percentage effect,[12],19%
same,percentage effect,[13],-4%
same,percentage effect,[14],-44%
same,percentage effect,[15],7%
same,percentage effect,[16],-7%
same,percentage effect,[17],5%
same,percentage effect,[18],-10%
same,percentage effect,[19],17%
same,percentage effect,[20],-15%
same,percentage effect,[21],0%
same,percentage effect,[22],13%
same,percentage effect,[23],-14%
same,percentage effect,[24],-5%
same,percentage effect,[25],-13%
same,percentage effect,[26],-4%
same,percentage effect,[27],-10%
same,percentage effect,[28],-4%
same,percentage effect,[29],14%
same,percentage effect,[30],8%
same,percentage effect,[31],-10%
same,percentage effect,[32],8%
same,percentage effect,[33],-9%
same,percentage effect,[34],-4%
same,percentage effect,[35],-6%
same,percentage effect,[36],-23%
same,percentage effect,[37],-18%
same,percentage effect,[38],10%
same,percentage effect,[39],9%
same,percentage effect,[40],-17%
same,percentage effect,[41],6%
same,percentage effect,[42],-6%
same,percentage effect,[43],-4%
same,percentage effect,[44],15%
same,percentage effect,[45],16%
COC1CN(C(=O)c2ccc3c(N)ncc(-c4ccc(-c5cnn(C)c5)cc4)c3n2)C1 [Compound 51],percentage effect,[1],6%
same,percentage effect,[2],8%
same,percentage effect,[3],10%
same,percentage effect,[4],-23%
same,percentage effect,[5],3%
same,percentage effect,[6],-18%
same,percentage effect,[7],3%
same,percentage effect,[8],-1%
same,percentage effect,[9],-8%
same,percentage effect,[10],14%
same,percentage effect,[11],5%
same,percentage effect,[12],-18%
same,percentage effect,[13],-7%
same,percentage effect,[14],13%
same,percentage effect,[15],-12%
same,percentage effect,[16],-3%
same,percentage effect,[17],-3%
same,percentage effect,[18],0%
same,percentage effect,[19],0%
same,percentage effect,[20],3%
same,percentage effect,[21],-2%
same,percentage effect,[22],7%
same,percentage effect,[23],2%
same,percentage effect,[24],-16%
same,percentage effect,[25],-9%
same,percentage effect,[26],5%
same,percentage effect,[27],2%
same,percentage effect,[28],20%
same,percentage effect,[29],0%
same,percentage effect,[30],2%
same,percentage effect,[31],-1%
same,percentage effect,[32],5%
same,percentage effect,[33],-4%
same,percentage effect,[34],6%
same,percentage effect,[35],-16%
same,percentage effect,[36],9%
same,percentage effect,[37],1%
same,percentage effect,[38],-3%
same,percentage effect,[39],-13%
same,percentage effect,[40],15%
same,percentage effect,[41],8%
same,percentage effect,[42],17%
same,percentage effect,[43],-3%
same,percentage effect,[44],-1%
same,percentage effect,[45],0%
